Data on eight compounds can be found in ChEMBL document CHEMBL2321817, “Detecting allosteric sites of HIV-1 reverse transcriptase by X-ray crystallographic fragment screening” (J Med Chem, 2013).

Activity calls are given as the source filed them. The calls are words filed in the database; no cut-off is given here.

The target in assay [1] is T1, Human immunodeficiency virus type 1 reverse transcriptase (Human immunodeficiency virus 1, UniProt Q72547). The assay is described as follows: Inhibition of wild type HIV-1 reverse transcriptase 507 site incubated after 30 mins by fluorescence assay.
Assay [2] concerns the target Human immunodeficiency virus type 1 reverse transcriptase (Human immunodeficiency virus 1) (UniProt Q72547). Briefly: Inhibition of wild type HIV-1 reverse transcriptase knuckles site at 1 mM after 30 mins by fluorescence assay.
Assay [3] deals with T1, Human immunodeficiency virus type 1 reverse transcriptase. The assay is described as follows: Inhibition of wild type HIV-1 reverse transcriptase incoming nucleotide binding site after 30 mins by fluorescence assay.
Assay [4] has the same target. Briefly: Inhibition of wild type HIV-1 reverse transcriptase knuckles site after 30 mins by fluorescence assay.
Assay [5] concerns the target Human immunodeficiency virus type 1 reverse transcriptase (Human immunodeficiency virus 1) (UniProt Q72547). Briefly: Inhibition of wild type HIV-1 reverse transcriptase p66/p51 399 site after 30 mins by fluorescence assay.
Assay [6] shares this target. The assay is described as follows: Inhibition of wild type HIV-1 reverse transcriptase 428 site at 1 mM after 30 mins by fluorescence assay relative to control.
Assay [7] has as its target T1, Human immunodeficiency virus type 1 reverse transcriptase. Briefly: Inhibition of wild type HIV-1 reverse transcriptase p66/p51 NNRTI adjacent binding site after 30 mins by fluorescence assay.
The target in assay [8] is Human immunodeficiency virus type 1 reverse transcriptase (Human immunodeficiency virus 1) (UniProt Q72547). Briefly: Inhibition of wild type HIV-1 reverse transcriptase RNase H primer grip adjacent site after 30 mins by fluorescence assay.

Regarding `CN(CC(=O)N1CCCc2ccccc21)Cc1nc(=O)c2ccccc2[nH]1`, in assay [1], the concentration for half-maximal inhibition (IC50) stood at 150 µM.
`NCc1ccc(OC(F)(F)F)cc1`: the inhibition result in assay [2] was “inactive”.
`CN1CCN(c2ccc(C(=O)O)cc2)CC1` showed an IC50 in assay [3] of 200 µM.
`Oc1ccc(OC(F)(F)F)cc1`: half-maximal inhibition in assay [4] (IC50) was put at 600 µM.
As to `Cc1c(CO)cnn1-c1ccc(F)cc1`, the inhibition entry in assay [5] is “inactive”.
In assay [6], `NCC(=O)Nc1ccc2[nH]c(=O)[nH]c2c1` displayed an inhibition of 30%.
In assay [7], `CCOC(=O)c1cnn2ccccc12` displayed an IC50 of 350 µM.
As to `Cn1ncc(C(=O)O)c1-c1ccccc1`, in assay [8], the inhibition result was “inactive”.
